ChEMBL document CHEMBL5653631, “A Potent and Selective ULK1 Inhibitor Suppresses Autophagy and Sensitizes Cancer Cells to Nutrient Stress” (iScience, 2018)

Assays:
[1] = molecular target: T1, Serine/threonine-protein kinase Nek1 (Homo sapiens) (UniProt Q96PY6); assay: Inhibition of human recombinant NEK1 at 40 nM in presence of ATP by radiometric assay relative to control
T1 sequence (whole entry): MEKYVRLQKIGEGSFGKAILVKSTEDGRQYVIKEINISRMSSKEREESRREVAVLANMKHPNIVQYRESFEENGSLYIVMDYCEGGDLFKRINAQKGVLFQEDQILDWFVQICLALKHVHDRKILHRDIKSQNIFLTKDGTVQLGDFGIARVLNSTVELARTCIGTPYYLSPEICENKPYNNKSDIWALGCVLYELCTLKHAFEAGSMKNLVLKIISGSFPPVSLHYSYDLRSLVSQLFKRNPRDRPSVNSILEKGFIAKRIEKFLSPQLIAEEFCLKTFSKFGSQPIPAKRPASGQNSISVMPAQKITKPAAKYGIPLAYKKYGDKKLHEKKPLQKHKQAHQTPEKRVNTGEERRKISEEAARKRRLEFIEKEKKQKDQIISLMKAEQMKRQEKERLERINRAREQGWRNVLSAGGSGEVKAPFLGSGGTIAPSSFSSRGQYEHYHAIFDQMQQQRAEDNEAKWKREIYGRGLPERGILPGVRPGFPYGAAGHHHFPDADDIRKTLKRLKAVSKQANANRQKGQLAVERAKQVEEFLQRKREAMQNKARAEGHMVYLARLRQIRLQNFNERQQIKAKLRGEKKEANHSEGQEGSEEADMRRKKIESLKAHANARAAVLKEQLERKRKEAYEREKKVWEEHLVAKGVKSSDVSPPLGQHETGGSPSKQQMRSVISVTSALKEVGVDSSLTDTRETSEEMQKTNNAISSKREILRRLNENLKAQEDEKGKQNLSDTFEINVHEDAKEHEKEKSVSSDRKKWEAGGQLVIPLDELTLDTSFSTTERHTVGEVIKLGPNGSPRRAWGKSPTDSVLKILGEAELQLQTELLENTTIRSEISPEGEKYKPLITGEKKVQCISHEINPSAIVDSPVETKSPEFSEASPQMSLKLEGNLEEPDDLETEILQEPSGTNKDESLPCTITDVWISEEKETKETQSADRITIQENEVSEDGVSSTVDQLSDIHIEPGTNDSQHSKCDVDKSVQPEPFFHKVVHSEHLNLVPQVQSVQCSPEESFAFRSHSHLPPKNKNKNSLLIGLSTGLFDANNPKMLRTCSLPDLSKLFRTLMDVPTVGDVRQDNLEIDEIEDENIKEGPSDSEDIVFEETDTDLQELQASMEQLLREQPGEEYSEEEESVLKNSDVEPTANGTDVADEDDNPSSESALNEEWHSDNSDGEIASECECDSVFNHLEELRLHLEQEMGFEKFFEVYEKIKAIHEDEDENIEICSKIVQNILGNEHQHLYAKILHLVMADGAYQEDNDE

[2] = molecular target: Ribosomal protein S6 kinase alpha-2 (Homo sapiens) (UniProt Q15349); assay: Inhibition of human recombinant RSK3 at 40 nM in presence of ATP by radiometric assay relative to control
[3] = molecular target: T2, Mitogen-activated protein kinase kinase kinase 2 (Homo sapiens) (UniProt Q9Y2U5); assay: Inhibition of human recombinant MAP3K2 at 15 nM related to control ULK1
T2 sequence (whole entry): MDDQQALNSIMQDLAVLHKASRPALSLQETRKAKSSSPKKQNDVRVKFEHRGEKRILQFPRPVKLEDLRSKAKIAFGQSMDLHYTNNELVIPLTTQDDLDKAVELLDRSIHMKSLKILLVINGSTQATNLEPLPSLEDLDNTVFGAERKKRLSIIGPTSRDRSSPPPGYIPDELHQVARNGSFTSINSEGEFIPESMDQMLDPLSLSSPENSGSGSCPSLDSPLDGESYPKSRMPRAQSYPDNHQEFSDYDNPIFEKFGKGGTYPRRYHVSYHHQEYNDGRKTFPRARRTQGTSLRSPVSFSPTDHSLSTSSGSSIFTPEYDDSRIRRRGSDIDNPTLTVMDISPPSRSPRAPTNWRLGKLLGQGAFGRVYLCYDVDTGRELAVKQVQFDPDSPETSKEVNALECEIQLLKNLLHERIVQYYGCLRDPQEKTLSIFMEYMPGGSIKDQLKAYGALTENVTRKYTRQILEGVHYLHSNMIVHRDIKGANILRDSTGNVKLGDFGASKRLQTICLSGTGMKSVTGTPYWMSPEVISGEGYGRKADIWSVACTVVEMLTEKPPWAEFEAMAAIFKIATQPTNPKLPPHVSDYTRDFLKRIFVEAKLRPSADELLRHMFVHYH

[4] = molecular target: T3, Discoidin domain-containing receptor 2 (Homo sapiens) (UniProt Q16832); assay: Inhibition of human recombinant DDR2 at 500 nM related to control ULK1
T3 sequence (whole entry): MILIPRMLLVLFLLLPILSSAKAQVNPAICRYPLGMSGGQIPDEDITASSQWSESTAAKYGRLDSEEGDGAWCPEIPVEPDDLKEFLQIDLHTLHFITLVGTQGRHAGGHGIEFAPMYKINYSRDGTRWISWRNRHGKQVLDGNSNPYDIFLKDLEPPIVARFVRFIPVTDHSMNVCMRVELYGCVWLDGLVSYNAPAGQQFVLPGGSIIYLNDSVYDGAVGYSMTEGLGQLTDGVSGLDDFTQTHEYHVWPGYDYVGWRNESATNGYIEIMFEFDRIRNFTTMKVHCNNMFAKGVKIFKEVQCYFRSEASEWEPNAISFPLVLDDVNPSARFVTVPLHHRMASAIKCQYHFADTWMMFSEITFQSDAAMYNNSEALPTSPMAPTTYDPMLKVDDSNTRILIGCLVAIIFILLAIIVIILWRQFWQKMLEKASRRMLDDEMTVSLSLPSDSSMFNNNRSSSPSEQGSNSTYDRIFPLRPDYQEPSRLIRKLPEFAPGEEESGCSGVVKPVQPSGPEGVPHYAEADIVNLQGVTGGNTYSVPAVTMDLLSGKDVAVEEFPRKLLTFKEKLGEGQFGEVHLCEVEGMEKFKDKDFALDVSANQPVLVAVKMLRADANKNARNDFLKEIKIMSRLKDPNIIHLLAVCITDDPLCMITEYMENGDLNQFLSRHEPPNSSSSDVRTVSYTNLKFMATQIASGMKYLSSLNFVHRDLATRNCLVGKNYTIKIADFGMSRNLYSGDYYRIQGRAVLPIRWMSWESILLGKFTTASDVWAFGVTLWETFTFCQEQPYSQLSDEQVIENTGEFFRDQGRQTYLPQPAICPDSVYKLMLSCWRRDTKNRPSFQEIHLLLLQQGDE

[5] = molecular target: Serine/threonine-protein kinase 10 (Homo sapiens) (UniProt O94804); assay: Inhibition of human recombinant LOK at 500 nM related to control ULK1
Sequence of Serine/threonine-protein kinase 10 (Homo sapiens) (O94804 whole entry, looked up): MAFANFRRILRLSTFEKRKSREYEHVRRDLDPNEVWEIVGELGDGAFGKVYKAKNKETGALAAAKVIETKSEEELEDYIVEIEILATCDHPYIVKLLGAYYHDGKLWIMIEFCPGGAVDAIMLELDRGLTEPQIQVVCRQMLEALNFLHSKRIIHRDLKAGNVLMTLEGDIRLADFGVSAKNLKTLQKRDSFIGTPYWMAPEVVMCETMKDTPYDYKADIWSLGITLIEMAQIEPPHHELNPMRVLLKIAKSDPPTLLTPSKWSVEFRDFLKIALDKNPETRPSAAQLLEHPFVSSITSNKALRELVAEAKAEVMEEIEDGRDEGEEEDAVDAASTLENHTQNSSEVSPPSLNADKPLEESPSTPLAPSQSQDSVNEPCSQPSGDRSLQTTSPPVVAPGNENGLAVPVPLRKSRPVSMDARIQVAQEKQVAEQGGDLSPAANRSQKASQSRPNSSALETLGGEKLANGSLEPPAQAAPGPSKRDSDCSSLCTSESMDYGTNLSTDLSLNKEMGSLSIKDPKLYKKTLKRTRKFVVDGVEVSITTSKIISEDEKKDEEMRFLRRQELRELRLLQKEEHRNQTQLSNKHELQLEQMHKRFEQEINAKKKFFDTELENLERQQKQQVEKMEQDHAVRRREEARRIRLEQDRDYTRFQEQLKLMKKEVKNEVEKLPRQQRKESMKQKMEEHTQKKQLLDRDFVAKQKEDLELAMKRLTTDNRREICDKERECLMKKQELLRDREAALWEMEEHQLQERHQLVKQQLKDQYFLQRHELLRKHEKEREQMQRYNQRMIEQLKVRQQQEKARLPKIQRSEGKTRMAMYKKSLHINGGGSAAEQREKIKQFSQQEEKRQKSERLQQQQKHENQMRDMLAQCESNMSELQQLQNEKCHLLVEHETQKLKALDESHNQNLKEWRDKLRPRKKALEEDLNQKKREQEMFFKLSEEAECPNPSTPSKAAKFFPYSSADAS

Sequence of Ribosomal protein S6 kinase alpha-2 (Homo sapiens) (Q15349 whole entry): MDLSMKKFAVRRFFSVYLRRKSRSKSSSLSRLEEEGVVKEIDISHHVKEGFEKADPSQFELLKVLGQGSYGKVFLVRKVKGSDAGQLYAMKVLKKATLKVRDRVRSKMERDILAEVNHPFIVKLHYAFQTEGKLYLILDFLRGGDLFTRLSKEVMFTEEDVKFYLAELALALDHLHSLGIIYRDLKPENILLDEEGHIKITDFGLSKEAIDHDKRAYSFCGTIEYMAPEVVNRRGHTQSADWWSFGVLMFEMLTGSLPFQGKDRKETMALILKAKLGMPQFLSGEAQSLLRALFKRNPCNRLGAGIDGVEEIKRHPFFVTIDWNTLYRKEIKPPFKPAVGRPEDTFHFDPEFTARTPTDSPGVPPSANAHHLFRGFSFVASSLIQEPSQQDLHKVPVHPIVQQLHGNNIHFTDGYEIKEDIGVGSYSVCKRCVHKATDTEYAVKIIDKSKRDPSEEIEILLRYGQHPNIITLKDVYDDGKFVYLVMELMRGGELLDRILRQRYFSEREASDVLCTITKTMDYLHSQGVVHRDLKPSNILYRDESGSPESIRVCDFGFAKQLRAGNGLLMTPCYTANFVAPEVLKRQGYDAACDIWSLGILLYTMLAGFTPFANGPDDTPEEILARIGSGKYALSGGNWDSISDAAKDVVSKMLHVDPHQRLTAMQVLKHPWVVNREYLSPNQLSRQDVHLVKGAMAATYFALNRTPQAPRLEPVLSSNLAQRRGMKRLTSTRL

An inhibition [1] of 0% and an inhibition [2] of 0% were found for `O=C(N[C@@H](C1CC1)C(F)(F)F)c1cc(-c2cnn3cc(-c4ccc(F)cc4)cnc23)cs1` in this work.

A fold change (FC) [3] of 0.03 was found for `CC(C)[C@H](NC(=O)c1cc(-c2cnn3cc(-c4ccc(OCCN5CCCCC5)cc4)cnc23)cs1)C(F)(F)F` in this work.

A fold change (FC) [4] of 0 and a fold change (FC) [5] of 0 were found for `CNC(=O)c1ccccc1Oc1nc(Nc2cc(OC)c(OC)c(OC)c2)ncc1Br` in this work.
